Values after ≈ are worked out from the molar mass of the structure shown.
System: 6 MRSA strains
Assay: MIC, panel of 6 MRSA strains
Assay type: cell-based
Details: Staphylococcus aureus, across the panel of tested Gram-positive strains, read-out: MIC against all the 6 MRSA strains
Protocol: Antibacterial activity: The compounds were tested for the minimum inhibitory concentrations (MIC), which is the lowest concentration of a chemical required to inhibit visible microbial growth following overnight incubation. MIC values were determined using broth microdilution method according to the Clinical and Laboratory Standards Institute guidelines (CLSI, 2015, M07-A10). Mueller-Hinton broth was used as a culture medium in all the experiments. Exponentially growing bacterial cells were prepared in Mueller-Hinton broth at a concentration of approximately 5×10^5 CFU/mL. Two-fold serial dilutions of the test compound (8 concentrations ranged between 100-0.78 μg/mL) were tested. […] In each experiment, solvent (DMSO) was used as a negative control, un-treated control (composing of bacteria in Mueller-Hinton broth) was used as a growth control, blank (culture media alone) was used as sterility control. The 96-well microplate with the test compounds was incubated overnight at 37° C. Turbidity in wells indicated bacterial growth.
The compounds were tested on six MDR Gram-positive bacteria including three clinical isolates of methicillin-resistant Staphylococcus aureus (MRSA-1, MRSA-2 and MRSA-3) and three reference MRSA strains (ATCC33591, ATCC33592 and ATCC700699). They were also tested on three MDR Gram-negative bacteria including New Delhi metallo-beta-lactamase (NDM-1) positive, carbapenem-resistant E. coli (ATCC BAA2469), extended-spectrum beta-lactamase (ESBL) producing, colistin-resistant E. coli (CDC-AR-0346) and carbapenem-resistant Acinetobacter baumannii (ATCC BAA1605), in addition to two non-MDR bacteria from the same species, namely E. coli (ATCC 25922) Acinetobacter baumannii (ATCC 19606).

- MIC: 1.56 µg/mL (≈ 3.36 µM)
Structure (SMILES): Cc1ccc2c(c1)c1c3n2[C@@]2(C=C/C(=N\Nc4ccc(C(F)(F)F)cc4)CC2)CC[C@@H]3NCC1 [Compound 1h]

From patent publication US11286258B2, “Nature-inspired anticancer and antibacterial motifs and pharmaceutical composition thereof” (University of Sharjah, priority 2020, dated 2022)
